From patent US7288556B2, “Antiproliferative 1,2,3-thiadiazole compounds” (QLT Inc., priority 2000, dated 2007)

Tested on: chick chorioallantoic membrane
Experiment: Chick chorioallantoic membrane (CAM) developmental angiogenesis assay
Format: in vivo, chicken
Settings: 50 μm
Protocol: e. Chick chorioallantoic membrane assay (CAM assay): was performed on fertilized chicken eggs and used as a test for angiogenesis inhibition.
Approximately 4 dozen fertilized eggs were sprayed with 70% ETOH and placed in a 180 egg incubator (GQF Sportsman incubator). The eggs were incubated “rounded-side down” and were fully rotated along the vertical axis every 30 minutes at 37° C. under 90% relative humidity.
After 4 days, the eggs were placed upside down (round side up) for 5-10 minutes, before a round hole approximately 3 centimeters in diameter was created above the pointed end or “air hole” of the egg using sterile blunt-ended forceps (“deshelling”). The inner membrane was also removed, and the embryo was visible through this opening. A small portion of the outer membrane was then carefully removed using fine-tipped forceps in order to expose the CAM. Sterile Parafilm was placed over the de-shelled opening to create an airtight seal. The eggs were returned to the incubator (with no rotation) for 2 days.
Viable eggs were then treated with control and inhibitor compounds. Gelfoam™ gelatin sterile sponge (Upjohn) or 1-2 mm discs of methylcellulose saturated with physiological saline, buffer or an appropriate dilution of the compounds under investigation. The Gelfoam™ fragments of methylcellulose discs were added directly to the surface of the developing CAM. Care was taken not to add the treatment directly over a large vessel. The shells were marked in 3 places to aid in stereotactic localization of the treatment sponge or disc. An average of 6 eggs were included for each experimental condition. The treated eggs were returned to the incubator for 2 days.
The eggs were then assessed for blood vessel growth inhibition. Photomicrographs for records and visual examination were made using a Nikon dissecting microscope with an attached Nikon 35-mm camera body.

SMILES	% Inhibition [%]
NC(=O)c1nnsc1Nc1cccc2ccccc12 [KP 27301, 5-(Naphthalen-1-ylamino)-[1,2,3]thiadiazole-4-carboxylicacid amide]	100
CCNc1snnc1C(N)=O [KP 27304, 5-Ethylamino-[1,2,3]thiadiazole-4-carboxylicacid amide]	60

Target: T1, integrin linked kinase (ILK1), full-length recombinant GST-ILK (Homo sapiens, UniProt Q13418)
T1 construct: The target integrin linked kinase is a full-length recombinant protein expressed in sF9 insect cells by baculovirus infection; made in house; host or cells: Baculovirus; virus amplified in Sf9 cells, protein expressed in Hi5 insect cells
T1 sequence (Q13418 1-452): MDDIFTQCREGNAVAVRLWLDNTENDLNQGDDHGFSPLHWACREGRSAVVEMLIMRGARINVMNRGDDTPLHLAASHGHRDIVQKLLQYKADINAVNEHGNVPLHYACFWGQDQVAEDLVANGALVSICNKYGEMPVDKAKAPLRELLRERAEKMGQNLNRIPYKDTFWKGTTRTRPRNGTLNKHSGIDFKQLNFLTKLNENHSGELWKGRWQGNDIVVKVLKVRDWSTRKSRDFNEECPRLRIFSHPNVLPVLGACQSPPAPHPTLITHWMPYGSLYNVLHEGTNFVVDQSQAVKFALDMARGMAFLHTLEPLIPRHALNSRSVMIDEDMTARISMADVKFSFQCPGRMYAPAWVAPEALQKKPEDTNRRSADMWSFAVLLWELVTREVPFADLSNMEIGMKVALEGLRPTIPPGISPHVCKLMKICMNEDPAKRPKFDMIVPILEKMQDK
Experiment: Integrin linked kinase inhibition assay (radioactive phosphate incorporation, scintillation counting)
Format: biochemical
Settings: not given
Protocol: Compounds are screened using a series of disease related kinase targets, such as integrin linked kinase-1. Synthesized libraries of compounds are tested against each of the targets to find compounds that inhibit one of the targets preferentially.
Inhibition of the targets is measured by scintillation counting; the incorporation of radioactive phosphate onto a specific substrate which is immobilized onto a filter paper at the end of the assay. To provide meaningful measurements of inhibition, the assays are performed both in the absence and presence of specific and known inhibitors, and the amount of incorporated radioactivity is compared to provide a baseline measurement.
Inhibition Assay: Compounds listed in Table 1 were lyophilized and stored at −20° C. Stock solutions were made by weighing out the compounds and dissolving them in dimethyl sulfoxide (DMSO) to a standard concentration, usually 20 mM, and stored at −20° C. […] Diluted 100% DMSO was used as a negative control.
A volume of 5 μl of each compound dilution were robotically pipetted to Costar serocluster plates maintaining the same plate format. All assays consisted of the following volumes: • 5 μl diluted compound • 10 μl enzyme preparation • 5 μl substrate • 5 μl assay ATP and were then incubated 15 min at room temperature.
From each reaction, 10 μl of reaction mix was spotted onto Millipore Multiscreen-PH opaque plates and washed 2×10 min in 1% phosphoric acid. The plates were dried for at 40° C. for 30 min, then the substrate phosphate complexes were quantitated by scintillation counting. These Millipore plates are in a 96 well format with immobilized P81 phosphocellulose membranes. Both the phosphorylated and non-phosphorylated form of the substrate bind to the membrane while ATP (unincorporated phosphate) is removed in the subsequent wash steps.
Integrin Linked Kinase: The target integrin linked kinase is a full-length recombinant protein expressed in sF9 insect cells by baculovirus infection. The ILK1 substrate is […]-amide.
Recombinant ILK protein was expressed using cultured insect cells and a baculovirus expression system.
A large scale plasmid preparation of the resulting transfer construct was made using a Qiagen Plasmid Midi Kit. This ILK transfer construct was then co-transfected with BaculoGold DNA (Pharmingen) into Sf9 insect cells (Invitrogen) and a high titre preparation of GST-ILK recombinant baculovirus was produced by amplification in Sf9 cells. Liter scale expression of GST-ILK recombinant protein was done in 1000 ml spinner flasks (Bellco) by infection of Hi5 insect cells (Invitrogen) grown in Ex-Cell 400 Serum Free Media (JRH Biosciences) at a multiplicity of infection of approximately 5. The cells were harvested three days after infection and lysed in Hypotonic Lysis Buffer (HLB; 10 mM imidazole, 5 mM EDTA, 0.1% β-mercaptoethanol, 10 ug/ml PMSF, 1 mM benzamidine) by sonication. The lysate was centrifuged at 10,000×g for 20 min and the supernatant was discarded. The pellet was washed twice in HLB and then washed twice in High Salt Buffer (HSB; 500 mM NaCl, 10 mM imidazole, 5 mM EDTA, 0.1% β-mercaptoethanol, 10 ug/ml PMSF, 1 mM benzamidine). The pellet was then resuspended in DNAse-ATP Buffer (DAB; 10 mM MgCl2, 1 mM MnCl2, β-methyl aspartic acid, 2 mM NaF, 0.55 mg/ml ATP, 1 ug/ml DNAse I, 1% NP-40, 10 mM imidazole, 5 mM EDTA, 0.1% β-mercaptoethanol, 10 ug/ml PMSF, 1 mM benzamidine) and stirred for 30 min at room temperature, and then centrifuged at 10,000×g for 20 min. The pellet was resuspended in High Salt Detergent Buffer (HDB; 1% NP-40, 1% Triton X-100, 500 mM NaCl, 10 mM imidazole, 5 mM EDTA, 0.1% β-mercaptoethanol, 10 ug/ml PMSF, 1 mM benzamidine), stirred for 30 min at room temperature, and then centrufuged at 10,000×g for 20 min. The pellet was then washed once in each of HDB, HSB, and HLB, centrifuging at 10,000×g each time. Finally, the pellet was resuspended in HLB.

SMILES	IC50 [µM]
CCOC(=O)Nc1snnc1C(N)=O [KP 27298, (4-Carbamoyl-[1,2,3]thiadiazol-5-yl)-carbamicacid ethyl ester]	> 20
NC(=O)c1nnsc1NC12CC3CC(CC(C3)C1)C2 [KP 27299, 5-(Adamantan-1-ylamino)-[1,2,3]thiadiazole-4-carboxylicacid amide]	> 20
NC(=O)c1nnsc1NC1CCCCC1 [KP 27300, 5-Cyclohexylamino-[1,2,3]thiadiazole-4-carboxylicacid amide]	> 20
CCCCCCNc1snnc1C(N)=O [KP 27305, 5-Hexylamino-[1,2,3]thiadiazole-4-carboxylicacid amide]	> 20
NCc1nnsc1Nc1ccccc1 [KP 27422, (4-Aminomethyl-[1,2,3]thiadiazol-5-yl)phenylamine]	> 20

Other lines, results leading:

IC50 [µM]	SMILES
> 20	NC(=O)c1nnsc1Nc1ccc(Br)cc1 [KP 27296, 5-(4-Bromophenylamino)-[1,2,3]thiadiazole-4-carboxylicacid amide]
> 20	COc1ccc(Nc2snnc2C(N)=O)cc1 [KP 27297, 5-(4-Methoxyphenylamino)-[1,2,3]thiadiazole-4-carboxylicacid amide]
> 20	NC(=O)c1nnsc1NCc1ccccc1 [KP 27302, 5-Benzylamino-[1,2,3]thiadiazole-4-carboxylicacid amide]
> 20	NC(=O)c1nnsc1NC(=O)c1ccccc1 [KP 27303, 5-Benzoylamino-[1,2,3]thiadiazole-4-carboxylicacid amide]
> 20	CCNc1snnc1C(N)=O [KP 27304, 5-Ethylamino-[1,2,3]thiadiazole-4-carboxylicacid amide]
> 20	CN(c1ccccc1)c1snnc1C(N)=O [KP 27420, 5-(Methylphenylamino)-[1,2,3]thiadiazole-4-carboxylicacid amide]
> 20	CC(=O)NC(=O)c1nnsc1Nc1ccccc1 [KP 27421, 5-Phenylamino-[1,2,3]thiadiazole-4-carboxylicacid acetylamide]
> 20	O=C(O)c1nnsc1Nc1ccccc1 [KP-27271, 5-Phenylamino-[1,2,3]thiadiazole-4-carboxylicacid]

Tested on: not given
Experiment: not given
Settings: not given

melting point [°C]	SMILES
194 to 196	CN(c1ccccc1)c1snnc1C(N)=O [KP 27420, 5-(Methylphenylamino)-[1,2,3]thiadiazole-4-carboxylicacid amide]
